Results taken from ChEMBL document CHEMBL1201862, “PubChem BioAssay data set” (2004).
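Compound exposure: 48 hours, 5 concentrations, 96-well plates. Abbreviation: GI50, concentration required for 50% inhibition of growth.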 Activity calls are given as the source filed them. No stated cut-off is given here; in the data, active = GI50 up to about 1.1 µM and inactive = higher.

How the values were obtained:
Assay in all cases: NCI anticancer screen, dose series, 48 h
[1] = test system: A498
[2] = test system: COLO 205
[3] = test system: SF-268
[4] = test system: OVCAR-4
[5] = test system: HCT-116
[6] = test system: SR
[7] = test system: NCI-H226
[8] = test system: SF-295
[9] = test system: LOX IMVI
[10] = test system: K562
[11] = test system: SK-OV-3
[12] = test system: UO-31
[13] = test system: SNB-19
[14] = test system: ACHN
[15] = test system: SK-MEL-2
[16] = test system: SNB-75
[17] = test system: Malme-3M
[18] = test system: U-251
[19] = test system: MOLT-4
[20] = test system: M14
[21] = test system: SN12C
[22] = test system: BT-549
[23] = test system: SW-620
[24] = test system: HL-60
[25] = test system: A549
[26] = test system: KM12
[27] = test system: UACC-257
[28] = test system: 786-0
[29] = test system: Hs-578T
[30] = test system: UACC-62
[31] = test system: HCT-15
[32] = test system: RXF 393
[33] = test system: T47D
[34] = test system: TK-10
[35] = test system: MDA-N
[36] = test system: CAKI-1
[37] = test system: DU-145
[38] = test system: SK-MEL-5
[39] = test system: OVCAR-8
[40] = test system: CCRF-CEM
[41] = test system: HOP-92
[42] = test system: RPMI-8226
[43] = test system: PC-3
[44] = test system: IGROV-1
[45] = test system: NCI-H23
[46] = test system: HT-29
[47] = test system: NCI/ADR-RES
[48] = test system: OVCAR-5
[49] = test system: EKVX
[50] = test system: MDA-MB-231
[51] = test system: MCF7
[52] = test system: OVCAR-3
[53] = test system: HOP-62
[54] = test system: NCI-H522
[55] = test system: MDA-MB-435
[56] = test system: SK-MEL-28
[57] = test system: HCC 2998
[58] = test system: SF-539
[59] = test system: NCI-H460

Measured: GI50

O=C1c2cc([N+](=O)[O-])ccc2-c2ccc3c4ccc5c6c(ccc(c7ccc1c2c73)c64)C(=O)c1cc([N+](=O)[O-])ccc1-5
inactive: [1] 4.03 µM | [2] > 100 µM | [3] > 100 µM | [4] > 100 µM | [5] > 100 µM | [6] > 100 µM | [7] > 100 µM | [8] > 100 µM | [9] > 100 µM | [10] > 100 µM | [11] > 100 µM | [12] > 100 µM | [13] > 100 µM | [14] > 100 µM | [15] > 100 µM | [16] > 100 µM | [17] > 100 µM | [18] > 100 µM | [19] > 100 µM | [20] > 100 µM | [21] > 100 µM | [22] > 100 µM | [23] > 100 µM | [24] > 100 µM | [25] > 100 µM | [26] > 100 µM | [27] > 100 µM | [28] > 100 µM | [29] > 100 µM | [30] > 100 µM | [32] > 100 µM | [33] > 100 µM | [34] > 100 µM | [35] > 100 µM | [36] > 100 µM | [37] > 100 µM | [38] > 100 µM | [39] > 100 µM | [40] > 100 µM | [41] > 100 µM | [42] > 100 µM | [43] > 100 µM | [44] > 100 µM | [45] > 100 µM | [46] > 100 µM | [47] > 100 µM | [48] > 100 µM | [49] > 100 µM | [50] > 100 µM | [51] > 100 µM | [52] > 100 µM | [53] > 100 µM | [54] > 100 µM | [55] > 100 µM | [56] > 100 µM
> 100 µM: [31]

COc1cc(C2SC(=N)Nc3c2c(C)nn3C(=O)c2ccc(Cl)cc2)ccc1O (configuration not stated)
active: [35] 0.236 µM
> 10 µM: [31]
inactive: [2] > 10 µM | [3] > 10 µM | [4] > 10 µM | [5] > 10 µM | [6] > 10 µM | [7] > 10 µM | [8] > 10 µM | [9] > 10 µM | [10] > 10 µM | [11] > 10 µM | [13] > 10 µM | [14] > 10 µM | [15] > 10 µM | [16] > 10 µM | [17] > 10 µM | [18] > 10 µM | [19] > 10 µM | [20] > 10 µM | [21] > 10 µM | [22] > 10 µM | [23] > 10 µM | [24] > 10 µM | [25] > 10 µM | [26] > 10 µM | [27] > 10 µM | [28] > 10 µM | [29] > 10 µM | [57] > 10 µM | [30] > 10 µM | [32] > 10 µM | [33] > 10 µM | [34] > 10 µM | [36] > 10 µM | [37] > 10 µM | [38] > 10 µM | [39] > 10 µM | [40] > 10 µM | [58] > 10 µM | [41] > 10 µM | [42] > 10 µM | [43] > 10 µM | [44] > 10 µM | [45] > 10 µM | [46] > 10 µM | [47] > 10 µM | [48] > 10 µM | [49] > 10 µM | [50] > 10 µM | [59] > 10 µM | [51] > 10 µM | [52] > 10 µM | [53] > 10 µM | [54] > 10 µM | [55] > 10 µM | [56] > 10 µM

CCOC(=O)C(C)c1nc2cc(N3CCOCC3)c(F)cc2[nH]c1=O (configuration not stated)
inactive: [1] > 100 µM | [2] > 100 µM | [3] > 100 µM | [4] > 100 µM | [5] > 100 µM | [6] > 100 µM | [7] > 100 µM | [8] > 100 µM | [10] > 100 µM | [11] > 100 µM | [12] > 100 µM | [13] > 100 µM | [14] > 100 µM | [15] > 100 µM | [16] > 100 µM | [17] > 100 µM | [18] > 100 µM | [19] > 100 µM | [20] > 100 µM | [21] > 100 µM | [22] > 100 µM | [23] > 100 µM | [24] > 100 µM | [25] > 100 µM | [26] > 100 µM | [27] > 100 µM | [28] > 100 µM | [29] > 100 µM | [57] > 100 µM | [30] > 100 µM | [32] > 100 µM | [33] > 100 µM | [34] > 100 µM | [35] > 100 µM | [36] > 100 µM | [37] > 100 µM | [38] > 100 µM | [39] > 100 µM | [40] > 100 µM | [58] > 100 µM | [41] > 100 µM | [42] > 100 µM | [43] > 100 µM | [44] > 100 µM | [45] > 100 µM | [46] > 100 µM | [47] > 100 µM | [48] > 100 µM | [49] > 100 µM | [50] > 100 µM | [59] > 100 µM | [51] > 100 µM | [52] > 100 µM | [53] > 100 µM | [54] 53.1 µM | [55] > 100 µM | [56] > 100 µM
> 100 µM: [31]

CN(CCNC(=O)c1n[nH]c2c1Cc1ccccc1-2)CCNC(=O)c1n[nH]c2c1Cc1ccccc1-2
inactive: [1] 18.6 µM | [2] 17.3 µM | [3] 19.5 µM | [4] 15.9 µM | [5] 16.2 µM | [6] 19.5 µM | [7] 19.1 µM | [8] 16.6 µM | [9] 18.9 µM | [10] 18 µM | [11] 16.5 µM | [12] 19.4 µM | [13] 16.8 µM | [14] 17.1 µM | [16] 12.5 µM | [17] 19.2 µM | [18] 19.3 µM | [19] 19.4 µM | [20] 18.7 µM | [21] 16.7 µM | [22] 16.8 µM | [23] 22.1 µM | [24] 21.1 µM | [25] 20.6 µM | [26] 17.3 µM | [27] 18.8 µM | [28] 16 µM | [29] 25.3 µM | [57] 15.4 µM | [30] 19 µM | [32] 15.3 µM | [33] 18.8 µM | [34] 19.1 µM | [35] 16.5 µM | [36] 16.7 µM | [37] 15.5 µM | [38] 16.9 µM | [39] 20.9 µM | [40] 18.1 µM | [41] 17.3 µM | [43] 17.8 µM | [44] 16.3 µM | [45] 17.2 µM | [46] 17.7 µM | [47] 37.8 µM | [48] 18.6 µM | [49] 20.6 µM | [50] 19 µM | [59] 18.1 µM | [51] 19.3 µM | [52] 14.9 µM | [53] 14.8 µM | [54] 17.5 µM | [55] 17.5 µM | [56] 18.3 µM
18.4 µM: [31]
